Patent publication US20240270762A1, “PENICILLIN-BINDING PROTEIN INHIBITORS” (priority 2021, published 2024)
In brackets after ≈: the same amount, converted by molar mass.

Key:
[1] = target: T1, PBP3 from Pseudomonas aeruginosa (PAO1) (Pseudomonas aeruginosa, UniProt G3XD46); assay: Bocillin-FL fluorescence polarization competition binding, P. aeruginosa PBP3; conditions: Binding affinity to P. aeruginosa PBP3; fluorescence polarization competition binding assay using Bocillin-FL; read-out: P. aeruginosa PBP3 Potency
T1 construct: made in house
T1 sequence (G3XD46 whole entry): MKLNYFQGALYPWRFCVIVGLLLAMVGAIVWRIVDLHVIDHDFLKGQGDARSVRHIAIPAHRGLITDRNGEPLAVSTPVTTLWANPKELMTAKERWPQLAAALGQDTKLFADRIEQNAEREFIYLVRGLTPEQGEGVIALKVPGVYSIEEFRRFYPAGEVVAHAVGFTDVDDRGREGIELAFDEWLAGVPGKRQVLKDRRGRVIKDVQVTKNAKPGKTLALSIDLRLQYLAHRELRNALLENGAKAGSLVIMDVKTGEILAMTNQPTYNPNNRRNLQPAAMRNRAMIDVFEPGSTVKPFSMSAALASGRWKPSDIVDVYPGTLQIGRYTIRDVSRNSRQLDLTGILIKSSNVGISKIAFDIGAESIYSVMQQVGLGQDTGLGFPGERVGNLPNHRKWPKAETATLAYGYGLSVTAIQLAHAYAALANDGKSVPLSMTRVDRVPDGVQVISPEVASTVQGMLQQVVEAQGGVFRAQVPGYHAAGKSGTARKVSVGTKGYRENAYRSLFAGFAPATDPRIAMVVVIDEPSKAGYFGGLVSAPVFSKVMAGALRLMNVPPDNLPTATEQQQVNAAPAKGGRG
Summary of the method: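 Purified PBPs pre-incubated with inhibitor (E. coli PBP3 1.5 μM, 30 min; P. aeruginosa PBP3 0.75 μM, A. baumannii PBP1a 1 μM and PBP3 0.2 μM, 15 min), then Bocillin-FL 0.1 μM (0.05 μM for PBP1a) added; FP read up to 60 min. EC50 = concentration halving bound Bocillin-FL.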

A. baumannii PBP2 = A. baumannii PBP2 (Acinetobacter baumannii, UniProt D0C8Z9); assay: Bocillin-FL competition binding via gel filtration, A. baumannii PBP2
Chain of A. baumannii PBP2 (D0C8Z9 whole entry): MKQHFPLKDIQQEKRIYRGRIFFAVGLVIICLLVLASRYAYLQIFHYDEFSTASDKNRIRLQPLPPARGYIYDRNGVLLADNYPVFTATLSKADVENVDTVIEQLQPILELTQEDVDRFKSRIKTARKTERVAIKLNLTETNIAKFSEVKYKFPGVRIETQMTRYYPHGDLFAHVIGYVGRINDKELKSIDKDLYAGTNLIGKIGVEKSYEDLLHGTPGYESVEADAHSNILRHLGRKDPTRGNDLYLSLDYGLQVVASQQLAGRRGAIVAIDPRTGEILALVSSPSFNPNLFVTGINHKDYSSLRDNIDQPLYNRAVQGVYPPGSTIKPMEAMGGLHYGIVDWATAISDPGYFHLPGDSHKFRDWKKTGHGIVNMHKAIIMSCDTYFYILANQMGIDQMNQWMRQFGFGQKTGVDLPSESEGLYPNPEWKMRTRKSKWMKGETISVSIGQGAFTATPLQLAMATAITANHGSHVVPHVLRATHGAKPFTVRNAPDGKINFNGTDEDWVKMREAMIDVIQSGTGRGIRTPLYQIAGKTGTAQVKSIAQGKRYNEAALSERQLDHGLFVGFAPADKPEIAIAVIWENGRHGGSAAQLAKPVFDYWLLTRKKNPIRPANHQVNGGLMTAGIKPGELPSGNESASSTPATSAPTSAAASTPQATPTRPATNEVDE
Summary of the method: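 Enzyme pre-incubated with increasing inhibitor concentrations, then Bocillin-FL added for 15 min further incubation. Bocillin-FL-bound PBP separated by gel filtration and fluorescence read. EC50 from fitting fraction PBP bound vs inhibitor concentration to a Hill-type equation (ymin, ymax, n).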

P. aeruginosa ATCC 27853 = assay: microbe, parasite or virus in culture; format: cell-based; conditions: Pseudomonas aeruginosa, ATCC27853, read-out: Minimum inhibitory concentration, P. aeruginosa ATCC 27853
A. baumannii ATCC 19606 = assay: microbe, parasite or virus in culture; format: cell-based; conditions: Acinetobacter baumannii, ATCC19606, read-out: MIC, A. baumannii ATCC 19606
P. aeruginosa ATCC 35151 = assay: microbe, parasite or virus in culture; format: cell-based; conditions: Pseudomonas aeruginosa, ATCC35151, read-out: Minimum inhibitory concentration, P. aeruginosa ATCC 35151
P. aeruginosa CDC-0090 = assay: microbe, parasite or virus in culture; format: cell-based; conditions: Pseudomonas aeruginosa, CDC0090, read-out: Minimum inhibitory concentration, P. aeruginosa CDC-0090
P. aeruginosa CDC-0095 = assay: microbe, parasite or virus in culture; format: cell-based; conditions: Pseudomonas aeruginosa, CDC0095, read-out: Minimum inhibitory concentration, P. aeruginosa CDC-0095
A. baumannii CDC-0033 = assay: microbe, parasite or virus in culture; format: cell-based; conditions: Acinetobacter baumannii, CDC0033, read-out: MIC, A. baumannii CDC-0033
A. baumannii CDC-0045 = assay: microbe, parasite or virus in culture; format: cell-based; conditions: Acinetobacter baumannii, CDC0045, read-out: MIC, A. baumannii CDC-0045
A. baumannii CDC-0083 = assay: microbe, parasite or virus in culture; format: cell-based; conditions: Acinetobacter baumannii, CDC0083, read-out: MIC, A. baumannii CDC-0083
[2] = system: B. humptydooensis ATCC BAA-2767; assay: microbe, parasite or virus in culture; format: cell-based; conditions: Burkholderia humptydooensis, ATCCBAA2767, read-out: Minimum inhibitory concentration (MIC), B. humptydooensis ATCC BAA-2767
P. aeruginosa CDC-0110 = assay: microbe, parasite or virus in culture; format: cell-based; conditions: Pseudomonas aeruginosa, CDC0110, read-out: Minimum inhibitory concentration, P. aeruginosa CDC-0110

Compound | IC50 [1] [µM] | EC50 (A. baumannii PBP2) [µM] | MIC (P. aeruginosa ATCC 27853) [µg/mL] | MIC (A. baumannii ATCC 19606) [µg/mL] | MIC (P. aeruginosa ATCC 35151) [µg/mL] | MIC (P. aeruginosa CDC-0090) [µg/mL] | MIC (P. aeruginosa CDC-0095) [µg/mL] | MIC (A. baumannii CDC-0033) [µg/mL] | MIC (A. baumannii CDC-0045) [µg/mL] | MIC (A. baumannii CDC-0083) [µg/mL] | MIC [2] [µg/mL] | MIC (P. aeruginosa CDC-0110) [µg/mL]
O=C(NCCCN1CCN(C(=O)NC(C(=O)N[C@H]2Cc3ccc(F)c(C(=O)O)c3OB2O)c2cc(F)c(O)c(O)c2Cl)C(=O)C1=O)c1ccnc(F)c1 (stereo partly drawn) [Example 466, (3R)-3-(2-(2-chloro-5-fluoro-3,4-dihydroxyphenyl)-2-(4-(3-(2-fluoroisonicotinamido)propyl)-2,3-dioxopiperazine-1-carboxamido)acetamido)-7-fluoro-2-hydroxy-3,4-dihydro-2H-benzo[e][1,2]oxaborinine-8-carboxylic acid] | < 10 | 10 to 50 | 2 to 4 (≈ 2.62 to 5.24 µM) | < 1 | < 1 | 2 to 4 (≈ 2.62 to 5.24 µM) | 2 to 4 (≈ 2.62 to 5.24 µM) | 2 to 4 (≈ 2.62 to 5.24 µM) | 2 to 4 (≈ 2.62 to 5.24 µM) | 2 to 4 (≈ 2.62 to 5.24 µM) | 8 to 16 (≈ 10.5 to 21 µM) | < 1
O=C(NCCCN1CCN(C(=O)NC(C(=O)N[C@H]2Cc3ccc(F)c(C(=O)O)c3OB2O)c2cc(F)c(O)c(O)c2Cl)C1=O)Nc1ccncc1 (stereo partly drawn) [Example 285, (3R)-3-(2-(2-chloro-5-fluoro-3,4-dihydroxyphenyl)-2-(2-oxo-3-(3-(3-(pyridin-4-yl)ureido)propyl)imidazolidine-1-carboxamido)acetamido)-7-fluoro-2-hydroxy-3,4-dihydro-2H-benzo[e][1,2]oxaborinine-8-carboxylic acid] | < 10 | 10 to 50 | 8 to 16 (≈ 10.9 to 21.9 µM) | < 1 | < 1 | 2 to 4 (≈ 2.73 to 5.47 µM) | > 128 | 8 to 16 (≈ 10.9 to 21.9 µM) | 2 to 4 (≈ 2.73 to 5.47 µM) | < 1 | 2 to 4 (≈ 2.73 to 5.47 µM) | 8 to 16 (≈ 10.9 to 21.9 µM)
O=C(NCCCN1CCN(C(=O)NC(C(=O)N[C@H]2Cc3ccc(F)c(C(=O)O)c3OB2O)c2cc(F)c(O)c(O)c2Cl)C(=O)C1=O)c1cc(F)c(F)c(O)c1F (stereo partly drawn) [Example 404, (3R)-3-(2-(2-chloro-5-fluoro-3,4-dihydroxyphenyl)-2-(2,3-dioxo-4-(3-(2,4,5-trifluoro-3-hydroxybenzamido)propyl)piperazine-1-carboxamido)acetamido)-7-fluoro-2-hydroxy-3,4-dihydro-2H-benzo[e][1,2]oxaborinine-8-carboxylic acid] | < 10 | < 10 | 2 to 4 (≈ 2.46 to 4.91 µM) | < 1 | < 1 | 2 to 4 (≈ 2.46 to 4.91 µM) | 2 to 4 (≈ 2.46 to 4.91 µM) | 2 to 4 (≈ 2.46 to 4.91 µM) | < 1 | > 128 | > 128 | < 1
O=C(NCCCN1CCN(C(=O)NC(C(=O)N[C@H]2Cc3ccc(F)c(C(=O)O)c3OB2O)c2cc(F)c(O)c(O)c2Cl)C(=O)C1=O)c1c(F)cc(O)cc1Cl (stereo partly drawn) [Example 421, (3R)-3-(2-(2-chloro-5-fluoro-3,4-dihydroxyphenyl)-2-(4-(3-(2-chloro-6-fluoro-4-hydroxybenzamido)propyl)-2,3-dioxopiperazine-1-carboxamido)acetamido)-7-fluoro-2-hydroxy-3,4-dihydro-2H-benzo[e][1,2]oxaborinine-8-carboxylic acid] | < 10 | < 10 | 2 to 4 (≈ 2.46 to 4.92 µM) | < 1 | < 1 | < 1 | 2 to 4 (≈ 2.46 to 4.92 µM) | 2 to 4 (≈ 2.46 to 4.92 µM) | < 1 | > 128 | 2 to 4 (≈ 2.46 to 4.92 µM) | < 1
O=C(NCCCN1CCN(C(=O)NC(C(=O)N[C@H]2Cc3ccc(F)c(C(=O)O)c3OB2O)c2cc(F)c(O)c(O)c2Cl)C(=O)C1=O)c1c(F)ccc(O)c1F (stereo partly drawn) [Example 413, (3R)-3-(2-(2-chloro-5-fluoro-3,4-dihydroxyphenyl)-2-(4-(3-(2,6-difluoro-3-hydroxybenzamido)propyl)-2,3-dioxopiperazine-1-carboxamido)acetamido)-7-fluoro-2-hydroxy-3,4-dihydro-2H-benzo[e][1,2]oxaborinine-8-carboxylic acid] | < 10 | 10 to 50 | < 1 | < 1 | < 1 | < 1 | < 1 | 2 to 4 (≈ 2.51 to 5.03 µM) | 2 to 4 (≈ 2.51 to 5.03 µM) | 2 to 4 (≈ 2.51 to 5.03 µM) | 2 to 4 (≈ 2.51 to 5.03 µM) | < 1
O=C(NCCS(=O)(=O)N1CCN(C(=O)N[C@@H](C(=O)N[C@H]2Cc3ccc(F)c(C(=O)O)c3OB2O)c2cc(F)c(O)c(O)c2Cl)C1=O)c1ccc(O)cc1 [Example 287, (R)-3-((R)-2-(2-chloro-5-fluoro-3,4-dihydroxyphenyl)-2-(3-((2-(4-hydroxybenzamido)ethyl)sulfonyl)-2-oxoimidazolidine-1-carboxamido)acetamido)-7-fluoro-2-hydroxy-3,4-dihydro-2H-benzo[e][1,2]oxaborinine-8-carboxylic acid] | < 10 | < 10 | 2 to 4 (≈ 2.56 to 5.12 µM) | < 1 | < 1 | 2 to 4 (≈ 2.56 to 5.12 µM) | 2 to 4 (≈ 2.56 to 5.12 µM) | < 1 | < 1 | < 1 | < 1 | < 1
Cc1cc(C(=O)NCCCN2CCN(C(=O)N[C@@H](C(=O)N[C@H]3Cc4ccc(F)c(C(=O)O)c4OB3O)c3cc(F)c(O)c(O)c3Cl)C(=O)C2=O)ccn1 [Example 298, (R)-3-((R)-2-(2-chloro-5-fluoro-3,4-dihydroxyphenyl)-2-(4-(3-(2-methylisonicotinamido)propyl)-2,3-dioxopiperazine-1-carboxamido)acetamido)-7-fluoro-2-hydroxy-3,4-dihydro-2H-benzo[e][1,2]oxaborinine-8-carboxylic acid] | < 10 | 10 to 50 | 2 to 4 (≈ 2.64 to 5.27 µM) | < 1 | < 1 | < 1 | < 1 | 2 to 4 (≈ 2.64 to 5.27 µM) | < 1 | < 1 | < 1 | < 1
O=C(NCCCN1CCN(C(=O)NC(C(=O)N[C@H]2Cc3ccc(F)c(C(=O)O)c3OB2O)c2cc(F)c(O)c(O)c2Cl)C(=O)C1=O)c1cc(O)ccc1F (stereo partly drawn) [Example 407, (3R)-3-(2-(2-chloro-5-fluoro-3,4-dihydroxyphenyl)-2-(4-(3-(2-fluoro-5-hydroxybenzamido)propyl)-2,3-dioxopiperazine-1-carboxamido)acetamido)-7-fluoro-2-hydroxy-3,4-dihydro-2H-benzo[e][1,2]oxaborinine-8-carboxylic acid] | < 10 | 10 to 50 | < 1 | < 1 | < 1 | < 1 | 2 to 4 (≈ 2.57 to 5.14 µM) | 2 to 4 (≈ 2.57 to 5.14 µM) | < 1 | < 1 | 8 to 16 (≈ 10.3 to 20.6 µM) | < 1
O=C(NCCCN1CCN(C(=O)NC(C(=O)N[C@H]2Cc3ccc(F)c(C(=O)O)c3OB2O)c2cc(F)c(O)c(O)c2Cl)C(=O)C1=O)c1ccc(O)cc1O (stereo partly drawn) [Example 307, (3R)-3-(2-(2-chloro-5-fluoro-3,4-dihydroxyphenyl)-2-(4-(3-(2,4-dihydroxybenzamido)propyl)-2,3-dioxopiperazine-1-carboxamido)acetamido)-7-fluoro-2-hydroxy-3,4-dihydro-2H-benzo[e][1,2]oxaborinine-8-carboxylic acid] | < 10 | < 10 | 2 to 4 (≈ 2.58 to 5.16 µM) | < 1 | < 1 | < 1 | < 1 | 2 to 4 (≈ 2.58 to 5.16 µM) | < 1 | < 1 | 8 to 16 (≈ 10.3 to 20.6 µM) | < 1
O=C(NCCCN1CCN(C(=O)NC(C(=O)N[C@H]2Cc3ccc(F)c(C(=O)O)c3OB2O)c2cc(F)c(O)c(O)c2Cl)C(=O)C1=O)c1c(F)cncc1Cl (stereo partly drawn) [Example 403, (3R)-3-(2-(2-chloro-5-fluoro-3,4-dihydroxyphenyl)-2-(4-(3-(3-chloro-5-fluoroisonicotinamido)propyl)-2,3-dioxopiperazine-1-carboxamido)acetamido)-7-fluoro-2-hydroxy-3,4-dihydro-2H-benzo[e][1,2]oxaborinine-8-carboxylic acid] | < 10 | 10 to 50 | 2 to 4 (≈ 2.51 to 5.02 µM) | < 1 | < 1 | 2 to 4 (≈ 2.51 to 5.02 µM) | 2 to 4 (≈ 2.51 to 5.02 µM) | 2 to 4 (≈ 2.51 to 5.02 µM) | < 1 | 2 to 4 (≈ 2.51 to 5.02 µM) | 2 to 4 (≈ 2.51 to 5.02 µM) | < 1
